The series is described as follows: Henry solubility constant Hcp at 298.15 K (mol/(m3 Pa)).
The mark [1] stands for this setting: reference: Warner et al. (1980).
Setting [2] is: reference: Buttery et al. (1965).
Setting [3] is: reference: Souchon et al. (2004).
Setting [4] is: reference: Jönsson et al. (1982).
Setting [5] is: reference: Wen and Muccitelli (1979).

Each structure is given as a SMILES string. “And” between values parts separate entries of the source, which are not always exact repeats. Equal entries are not always repeated.

`ClC1=C(Cl)C2(Cl)C3C(Cl)C=CC3C1(Cl)C2(Cl)Cl` (centres undefined) [heptachlor]: the “Henry solubility constant Hcp” value under setting [1] stood at 0.0067.
On to `ClC1=C(Cl)C2(Cl)C3C4OC4C(Cl)C3C1(Cl)C2(Cl)Cl` (centres undefined) [heptachlorepoxide], for which, under setting [1], the “Henry solubility constant Hcp” value amounted to 0.31.
For the compound `CCCCCCC=O` [heptanal], the “Henry solubility constant Hcp” value was 0.06 under setting [2] and 0.035 under setting [3].
As for `CCCCCCC` [heptane], the “Henry solubility constant Hcp” value is 4.2e-06 under setting [4] and 5.5e-06 (reference: Park et al. (1997)).
As to `CCCCCCC(=O)O` [heptanoic acid], under “reference: Kim and Kim (2016)”, the “Henry solubility constant Hcp” value was 15.
Consider `ClC1=C(Cl)C(Cl)(Cl)C(Cl)=C1Cl` [hexachlorocyclopentadiene], for which the “Henry solubility constant Hcp” value turned out to be 0.0006 under setting [1] and 0.00037 (reference: Wolfe et al. (1982)).
For `ClC(Cl)(Cl)C(Cl)(Cl)Cl` [hexachloroethane], the “Henry solubility constant Hcp” value by setting is: (reference: Munz and Roberts (1986)) 0.0034; (reference: Munz and Roberts (1987)) 0.0025; under setting [1], 0.001.
Consider `Fc1c(F)c(F)c(F)c(F)c1F` [hexafluorobenzene], for which, for the setting “reference: Schröder et al. (2011)”, the “Henry solubility constant Hcp” value worked out at 0.00029.
Regarding `FC(F)(F)C(F)(F)F` [hexafluoroethane], the “Henry solubility constant Hcp” value (reference: Bonifácio et al. (2001)) was determined as 6.5e-07, the “Henry solubility constant Hcp” value (reference: Park et al. (1982)) came to 5.3e-07 and the “Henry solubility constant Hcp” value under setting [5] was 5.6e-07.
As for `FC(F)=C(F)C(F)(F)F` [hexafluoropropene], the “Henry solubility constant Hcp” value (reference: Maaßen (1995)) was found to be 6.8e-06.
As for `CCCCCC` [hexane], the “Henry solubility constant Hcp” value under setting [4] amounted to 5.9e-06; the “Henry solubility constant Hcp” value (reference: Park et al. (1997)) turned out to be 7.4e-06; the “Henry solubility constant Hcp” value (reference: Tsonopoulos and Wilson (1983)) came out at 6.7e-06.
In the case of `CCCCCC(=O)O` [hexanoic acid], the “Henry solubility constant Hcp” value (reference: Khan and Brimblecombe (1992)) came to 13; the “Henry solubility constant Hcp” value (reference: Khan et al. (1995)) worked out at 13; the “Henry solubility constant Hcp” value (reference: Kim and Kim (2016)) came out at 9.9; the “Henry solubility constant Hcp” value (reference: von Hartungen et al. (2004)) was determined as 7.5.
As to `CN(C)c1nc(=O)n(C2CCCCC2)c(=O)n1C` [hexazinone], under “reference: Mabury and Crosby (1996)”, the “Henry solubility constant Hcp” value is above 99.
`CCCCCCOC(C)=O` [hexyl ethanoate]: the “Henry solubility constant Hcp” value under setting [3] was 0.014.
Turning to `OCOO` [hydroxymethyl hydroperoxide], the “Henry solubility constant Hcp” value is, setting by setting: (reference: O’Sullivan et al. (1996)) 16000; (reference: Staffelbach and Kok (1993)) 16000; (reference: Zhou and Lee (1992)) 4700.
Consider `[CH3][Hg+].[OH-]` [hydroxymethylmercury], for which the “Henry solubility constant Hcp” value (reference: Iverfeldt and Persson (1985)) was determined as 980.
On to `II` [iodine (molecular)], for which the “Henry solubility constant Hcp” value (reference: Eguchi et al. (1973)) was 0.028.
`N=C=O` [isocyanic acid]: the “Henry solubility constant Hcp” value (reference: Roberts et al. (2011)) came out at 0.21.
With `[Kr]` [krypton], the “Henry solubility constant Hcp” value runs as follows: (reference: Cosgrove and Walkley (1981)) 2.6e-05; (reference: Crovetto et al. (1982)) 2.5e-05; (reference: Krause and Benson (1989)) 2.5e-05; (reference: Morrison and Johnstone (1954)) 2.4e-05; (reference: von Antropoff (1910)) 3.4e-05 and 2.8e-05.
`C=C(C)C1CCC2(C)OC2C1` (centres undefined) [limonene oxide]: under “reference: Fichan et al. (1999)”, the “Henry solubility constant Hcp” value came out at 0.056.
Turning to `[Hg]` [mercury], the “Henry solubility constant Hcp” value is, setting by setting: (reference: Andersson et al. (2008)) 0.0013; (reference: Sanemasa (1975)) 0.0013.
In the case of `CN` [methanamine], the “Henry solubility constant Hcp” value (reference: Christie and Crisp (1967)) is 0.89.
For `CS` [methanethiol], the “Henry solubility constant Hcp” value runs as follows: (reference: De Bruyn et al. (1995b)) 0.002; (reference: Hine and Weimar (1965)) 0.0033.
With `COc1ccccc1` [methoxybenzene], the “Henry solubility constant Hcp” value (reference: Brockbank et al. (2013)) stood at 0.029.
Take `COC(=O)C(C)O` (centres undefined) [methyl 2-hydroxypropanoate]: the “Henry solubility constant Hcp” value (reference: Sanz and Gmehling (2005)) turned out to be 9.1.
Regarding `CCCC(=O)OC` [methyl butanoate], the “Henry solubility constant Hcp” value reads like this: (reference: Aprea et al. (2007)) 0.037; (reference: Ioffe et al. (1984)) 0.036.
In the case of `COC(C)=O` [methyl ethanoate], the “Henry solubility constant Hcp” value is, setting by setting: (reference: Arp and Schmidt (2004)) 0.066; (reference: Butler and Ramchandani (1935)) 0.11; (reference: Fenclová et al. (2014)) 0.081; (reference: Ioffe et al. (1984)) 0.077; (reference: Kieckbusch and King (1979b)) 0.077; (reference: McKeown and Stowell (1927)) 0.087.
Regarding `CCCCCC(=O)OC` [methyl hexanoate], the “Henry solubility constant Hcp” value (reference: Aprea et al. (2007)) came to 0.019.
For the compound `CN=C=O` [methyl isocyanate], the “Henry solubility constant Hcp” value (reference: Roberts and Liu (2019)) was found to be 0.013.
In the case of `CN=C=S` [methyl isothiocyanate], the “Henry solubility constant Hcp” value (reference: Worthington and Wade (2007)) was determined as 0.16.
Regarding `CC/C=C/C[C@@H]1C(=O)CC[C@H]1CC(=O)OC` [methyl jasmonate], where the note is “reference: Karl et al. (2008)”, the “Henry solubility constant Hcp” value is 50.
Regarding `CCCCCCCC(=O)OC` [methyl octanoate], where the note is “reference: Aprea et al. (2007)”, the “Henry solubility constant Hcp” value was determined as 0.0099.
In the case of `CCC(=O)OC` [methyl propanoate], the “Henry solubility constant Hcp” value (reference: Ioffe et al. (1984)) turned out to be 0.052.
Turning to `CC1CCCCC1` [methylcyclohexane], the “Henry solubility constant Hcp” value (reference: Ramachandran et al. (1996)) was 0.00015.
For `ClC1(Cl)C2(Cl)C3(Cl)C4(Cl)C(Cl)(Cl)C5(Cl)C3(Cl)C1(Cl)C5(Cl)C24Cl` (centres undefined) [mirex], the “Henry solubility constant Hcp” value (reference: Yin and Hassett (1986)) stood at 0.012.
As for `O=[N+]([O-])c1ccccc1` [nitrobenzene], the “Henry solubility constant Hcp” value under setting [1] came to 0.41.
For `ClN(Cl)Cl` [nitrogen trichloride], the “Henry solubility constant Hcp” value (reference: Holzwarth et al. (1984)) was 0.00099.
For the compound `FN(F)F` [nitrogen trifluoride], the “Henry solubility constant Hcp” value reads like this: (reference: Ashton et al. (1968)) 7.8e-06; (reference: Dean et al. (1973)) 7.7e-06.
Take `[O][N+](=O)[O-]` [nitrogen trioxide]: the “Henry solubility constant Hcp” value (reference: Thomas et al. (1998)) amounted to 0.018.
For the compound `O=NCl` [nitrosyl chloride], under “reference: Scheer et al. (1997)”, the “Henry solubility constant Hcp” value is above 0.00049.
As to `O=NO` [nitrous acid], the “Henry solubility constant Hcp” value runs as follows: (reference: Becker et al. (1996)) 0.47; (reference: Becker et al. (1998)) 0.47; (reference: Komiyama and Inoue (1978)) 0.37; (reference: Park and Lee (1988)) 0.48.
With `CCCCCCCCC=O` [nonanal], under setting [2], the “Henry solubility constant Hcp” value was 0.071.
In the case of `CCCCCCCCC` [nonane], the “Henry solubility constant Hcp” value runs as follows: under setting [4], 1.8e-06; (reference: Park et al. (1997)) 1.9e-06.
On to `FC1(F)C(F)(F)C(F)(F)C1(F)F` [octafluorocyclobutane], for which the “Henry solubility constant Hcp” value runs as follows: (reference: Park et al. (1982)) 1.2e-06; (reference: Scharlin and Battino (1994)) 1.3e-06; under setting [5], 1.2e-06.
As to `FC(F)(F)C(F)(F)C(F)(F)F` [octafluoropropane], the “Henry solubility constant Hcp” value under setting [5] was 1.2e-07.
With `C[Si](C)(C)O[Si](C)(C)O[Si](C)(C)C` [octamethyltrisiloxane], under “reference: Xu and Kropscott (2014)”, the “Henry solubility constant Hcp” value was determined as 3.4e-07.
Turning to `CCCCCCCC=O` [octanal], the “Henry solubility constant Hcp” value under setting [2] was found to be 0.075.
For the compound `CCCCCCCC` [octane], the “Henry solubility constant Hcp” value by setting is: (reference: Heidman et al. (1985)) 3.1e-06; under setting [4], 2.9e-06; (reference: Park et al. (1997)) 3.3e-06.
In the case of `O=C1CCCCCCCCCCCCCCO1` [oxacyclohexadecan-2-one], where the note is “reference: Amoore and Buttery (1978)”, the “Henry solubility constant Hcp” value worked out at 0.004.
Take `C1CO1` [oxirane]: the “Henry solubility constant Hcp” value (reference: Conway et al. (1983)) turned out to be 0.058.
For `O=CC(=O)O` [oxoethanoic acid], the “Henry solubility constant Hcp” value (reference: Ip et al. (2009)) amounted to 110.
Regarding `CC(Cl)CCC(Cl)C(Cl)CCC(Cl)CCl` (stereo not drawn) [pentachlorodecane isomers], for the setting “reference: Drouillard et al. (1998)”, the “Henry solubility constant Hcp” value was 0.2 and 0.38.
`O=C(O)C(F)(F)C(F)(F)C(F)(F)C(F)(F)C(F)(F)C(F)(F)C(F)(F)F` [pentadecafluorooctanoic acid]: the “Henry solubility constant Hcp” value reads like this: (reference: Kutsuna and Hori (2008b)) 0.049; (reference: Kwan (2001)) 2.8; (reference: Li et al. (2007)) 0.4.
Consider `FC(F)C(F)(F)F` [pentafluoroethane], for which the “Henry solubility constant Hcp” value by setting is: (reference: Miguel et al. (2000)) 0.00031; (reference: Reichl (1995)) 3.5e-05.
In the case of `CCCCC` [pentane], the “Henry solubility constant Hcp” value reads like this: (reference: Jou and Mather (2000)) 8.7e-06; under setting [4], 8.2e-06.

The values are drawn from Sander's compilation of Henry's law constants.
